Measured values: patent US20250215039A1, “NUCLEOSIDES FOR TREATING CANCER” (PRIMEFOUR THERAPEUTICS, INC., priority 2022, published 2025)
Read-outs that look alike come from different tables or passages of the source.

Tested on: cancer cell lines
Test: Cancer cell proliferation activity (CellTiterGlo, 72 h)
Type: cell-based
Conditions: 72 h, 72 h, read-out: IC50 cell proliferation
Procedure: Dose response relationships on cell proliferation was assessed for representative Compounds of the Disclosure on cancer cell lines. Briefly, compound treatment of cells started one day after seeding with a final DMSO concentration of 0.1%, and was performed by nanodrop-dispensing using a Tecan Dispenser. 0.1% DMSO (solvent) and Staurosporine (10 μM) served as high control (100% viability) and low control (0% viability), respectively.
Cells were cultured in the appropriate media. For the assays, cells were seeded in white cell culture-treated flat and clear bottom multiwell plates and incubated at 37° C. overnight before compound was added. After incubation for 72 h at 37° C. at 5% or 10% CO2 dependent on the medium, cell plates were equilibrated to room temperature for one hour, CellTiterGlo reagent (Promega) was added and luminescence was measured approximately an hour later using a luminometer.
Raw data were converted into percent cell viability relative to the high and low control, which were set to 100% and 0%, respectively.
The IC50 values are summarized in Tables 9A-1, Table 10A, and Table 10B.

IC50 (5637 (bladder)): 1 nM
IC50 (CLS439 (bladder)): 23 nM
IC50 (HS729 (muscle)): 15 nM
IC50 (J82 (bladder)): 5 nM
IC50 (JAR (placenta)): 18 nM
IC50 (MT3 (breast)): 4 nM
IC50 (PANCI (pancreas)): 28 nM
IC50 (PC3 (prostate)): 14 nM
IC50 (RD (muscle)): 10 nM
IC50 (T24 (bladder)): 5 nM
IC50 (Homo sapiens, 22Rv1, 72 h, 22RV1 (prostate)): 2 nM
IC50 (Homo sapiens, 786-0, 72 h, 786O (kidney)): 17 nM
IC50 (Homo sapiens, A204, 72 h, A204 (muscle)): 51 nM
IC50 (Homo sapiens, A549, 72 h, A549 (lung)): 14 nM
IC50 (Homo sapiens, A673, 72 h, A673 (bone)): 3 nM
IC50 (Homo sapiens, A2780, 72 h, A2780 (ovary)): 8 nM
IC50 (Homo sapiens, A-375, 72 h, A375 (skin)): 7 nM
IC50 (Homo sapiens, A-431, 72 h, A431 (skin)): 0.4 nM
IC50 (Homo sapiens, ACHN, ACHN (kidney)): 3 nM
IC50 (Homo sapiens, ASPC1, 72 h, ASPC1 (pancreas)): 8 nM
IC50 (Homo sapiens, BT-20, 72 h, BT20 (breast)): > 50000 nM
IC50 (Homo sapiens, BXPC-3, 72 h, BXPC3 (pancreas)): 1 nM
IC50 (Homo sapiens, C-33-A, C33A (endometrial)): 9 nM
IC50 (Homo sapiens, CAKI-1, 72 h, CAKI1 (kidney)): 45 nM
IC50 (Homo sapiens, COLO 205, 72 h, COLO205 (colon)): 1 nM
IC50 (Homo sapiens, COLO-678, 72 h, COLO678 (colon)): > 50000 nM
IC50 (Homo sapiens, Ca-Ski, CASKI (endometrial)): 23 nM
IC50 (Homo sapiens, Caco-2, 72 h, CACO2 (colon)): > 50000 nM
IC50 (Homo sapiens, Calu-6, 72 h, CALU6 (lung)): 29 nM
IC50 (Homo sapiens, DLD-1, 72 h, DLD1 (colon)): 16 nM
IC50 (Homo sapiens, DU-145, 72 h, DU145 (prostate)): 10 nM
IC50 (Homo sapiens, EFO-21, 72 h, EFO21 (ovary)): 476 nM
IC50 (Homo sapiens, EJ-28, 72 h, EJ28 (bladder)): 4 nM
IC50 (Homo sapiens, Granta-519, 72 h, GRANTA-519 (hematological)): 9 nM
IC50 (Homo sapiens, HCT-15, 72 h, HCT15 (colon)): 15 nM
IC50 (Homo sapiens, HCT-116, 72 h, HCT116 (colon)): 23 nM
IC50 (Homo sapiens, HEK293, 72 h, HEK293 (kidney)): 30 nM
IC50 (Homo sapiens, HL-60, 72 h, HL-60 (hematological)): 8 nM
IC50 (Homo sapiens, HT-29, 72 h, HT29 (colon)): 2 nM
IC50 (Homo sapiens, HT-1080, 72 h, HT1080 (connective tissue)): 8 nM
IC50 (Homo sapiens, HeLa, HELA (endometrial)): 1530 nM
IC50 (Homo sapiens, HepG2, 72 h, HEPG2 (liver)): 2 nM
IC50 (Homo sapiens, Hs-578T, HS578T (breast)): > 50000 nM
IC50 (Homo sapiens, IGROV-1, 72 h, IGROV1 (ovary)): 22 nM
IC50 (Homo sapiens, IMR-90, 72 h, IMR90 (lung)): > 50000 nM
IC50 (Homo sapiens, JEG-3, 72 h, JEG3 (placenta)): 2 nM
IC50 (Homo sapiens, JIMT-1, 72 h, JIMT1 (breast)): 34 nM
IC50 (Homo sapiens, K562, 72 h, K-562 (hematological)): 94 nM
IC50 (Homo sapiens, Kasumi 1, 72 h, KASUMI-1 (hematological)): 16 nM
IC50 (Homo sapiens, L-363, 72 h, L-363 (hematological)): 3 nM
IC50 (Homo sapiens, LoVo, LOVO (colon)): 2 nM
IC50 (Homo sapiens, MCF7, 72 h, MCF7 (breast)): 2 nM
IC50 (Homo sapiens, MDA-MB-231, 72 h, MDAMB231 (breast)): 381 nM
IC50 (Homo sapiens, MDA-MB-435, 72 h, MDAMB435 (skin)): 17 nM
IC50 (Homo sapiens, MDA-MB-436, 72 h, MDAMB436 (breast)): 3 nM
IC50 (Homo sapiens, MDA-MB-468, 72 h, MDAMB468 (breast)): 18 nM
IC50 (Homo sapiens, MG-63, 72 h, MG63 (bone)): 10 nM
IC50 (Homo sapiens, MHH-ES-1, 72 h, MHHES1 (bone)): 5 nM
IC50 (Homo sapiens, MIA PaCa-2, 72 h, MIAPACA2 (pancreas)): 16 nM
IC50 (Homo sapiens, MINO, MINO (hematological)): 1 nM
IC50 (Homo sapiens, MV4-11, 72 h, MV4-11 (hematological)): 1 nM
IC50 (Homo sapiens, NCI-H23, 72 h, NCI-H23 (lung)): 8 nM
IC50 (Homo sapiens, NCI-H82, 72 h, NCIH82 (lung)): 6 nM
IC50 (Homo sapiens, NCI-H292, 72 h, NCIH292 (lung)): 19 nM
IC50 (Homo sapiens, NCI-H460, 72 h, NCIH460 (lung)): 2 nM
IC50 (Homo sapiens, OVCAR-3, 72 h, OVCAR3 (ovary)): 15 nM
IC50 (Homo sapiens, OVCAR-4, 72 h, OVCAR4 (ovary)): 538 nM
IC50 (Homo sapiens, PLC-PRF-5, 72 h, PLCPRF5 (liver)): 19 nM
IC50 (Homo sapiens, Panc1005, 72 h, PANC1005 (pancreas)): 553 nM
IC50 (Homo sapiens, Ramos, RAMOS (hematological)): 18 nM
IC50 (Homo sapiens, SAOS-2, 72 h, SAOS2 (bone)): 3 nM
IC50 (Homo sapiens, SF-268, 72 h, SF268 (brain)): 7 nM
IC50 (Homo sapiens, SF-295, 72 h, SF295 (brain)): 7 nM
IC50 (Homo sapiens, SK-HEP1, 72 h, SKHEP1 (liver)): 16 nM
IC50 (Homo sapiens, SK-LMS-1, 72 h, SKLMS1 (uterus)): 11 nM
IC50 (Homo sapiens, SK-MEL-5, 72 h, SKMEL5 (skin; SKMELS [sic] in Table 9E)): 29 nM
IC50 (Homo sapiens, SK-MEL-28, 72 h, SKMEL28 (skin)): 112 nM
IC50 (Homo sapiens, SK-N-AS, SKNAS (brain)): > 50000 nM
IC50 (Homo sapiens, SK-N-SH, SKNSH (brain)): 151 nM
IC50 (Homo sapiens, SK-OV-3, 72 h, SKOV3 (ovary)): 28 nM
IC50 (Homo sapiens, SNB-75, 72 h, SNB75 (brain)): > 50000 nM
IC50 (Homo sapiens, SU-DHL10, 72 h, SU-DHL-10 (hematological)): 226 nM
IC50 (Homo sapiens, SU-DHL-6, 72 h, SU-DHL-6 (hematological)): 7 nM
IC50 (Homo sapiens, SW-620, 72 h, SW620 (colon)): 2 nM
IC50 (Homo sapiens, TE-671, 72 h, TE671 (muscle)): 8 nM
IC50 (Homo sapiens, THP-1, 72 h, THP-1 (hematological)): 2 nM
IC50 (Homo sapiens, U2OS, U20S (bone; U2OS in Table 9E)): > 50000 nM
IC50 (Homo sapiens, U-87 MG, U87MG (brain)): > 50000 nM
IC50 (Homo sapiens, UMUC3, 72 h, UMUC3 (bladder)): 7 nM
IC50 (Homo sapiens, UO-31, 72 h, UO31 (kidney)): 31 nM
IC50 (Homo sapiens, WSU-NHL, WSU-NHL (hematological)): 1 nM
IC50 (NCI-H358M, NCIH358M (lung)): 6 nM
IC50 (PBMC, PBMC (hematological)): > 50000 nM
IC50 (RD-ES, RDES (bone)): 7 nM
Structure (SMILES): Nc1nc(=O)n([C@H]2C[C@H](O)[C@@H](CO)O2)cc1F [compound 169, 4-amino-5-fluoro-1-((2R,4S,5R)-4-hydroxy-5-(hydroxymethyl)tetrahydrofuran-2-yl)pyrimidin-2(1H)-one]
